From PMC7615677 (Science translational medicine, 2023)
≈ marks a conversion by molar mass, not a printed value. Where two headings read alike, the source gives them in different places.

What was measured:
[1] = system: T. b. rhodesiense (bloodstream form); assay: In vitro activity against other kinetoplastid parasites; type: cell-based; settings: Trypanosoma brucei, one range given for T. brucei brucei and T. b. rhodesiense
[2] = system: L. donovani promastigote cultures; assay: microbe, parasite or virus in culture; type: cell-based; settings: Leishmania donovani
Procedure: The clonal L. donovani cell line LdBOB (derived from MHOM/SD/62/1S-CL2D) was grown as promastigotes at 28°C and as axenic amastigotes at 37°C, as described previously ([25]).
To examine the effects of test compounds on growth in 96-well plates, promastigote or axenic amastigote cultures seeded at 5 × 10^4 parasites mL^–1 were incubated in the presence of 2-fold serial dilutions of test compounds for 72 h. Following incubation, 50 μM resazurin was added to each well and fluorescence (excitation of 528 nm and emission of 590 nm) measured after a further 3 h incubation.
Starting at sublethal concentrations, drug concentrations in 5 independent cultures were increased in a stepwise manner, usually by 2-fold. […] Five clones (Res 1–5) were selected for further biological study.

[3] = Solubility in biorelevant buffers; type: physicochemical
Procedure: The ionization constant (pKa), octanol-pH 7.4 buffer partition coefficient (Log D7.4), solubility in biorelevant buffers (FaSSIF-V2, FeSSIF-V2, FaSSGF and pH 7.4 phosphate buffered saline (PBS)) and Caco-2 permeability were determined according to previously published methods ([10]).

[4] = Binding to liver microsomes; type: in vitro ADME; settings: pH 7.4; human liver microsomes 1 mg/mL; read-out: Microsome fraction unbound
Procedure: Dialysis was conducted for 6 h and parallel non-dialyzed samples were included to confirm the absence of compound degradation. Binding to hepatocytes (at a cell density of 1 x 10^6 cells/mL) was calculated from the measured microsomal binding (at 1 mg/mL) as described previously ([26]). The fraction unbound (fu) was determined from the ratio of the dialysate to the donor concentration, assuming that the system was at steady state at the end of the dialysis period. For plasma, the data were corrected for the dilution factor to give a binding value for neat plasma according to previously published methods ([27]).

[5] = In vitro metabolism, cryopreserved hepatocytes; type: in vitro ADME, human
Procedure: Cell viability was determined using trypan blue exclusion. The incubation was performed on a plate shaker (Heidolph Titrimax 100, 900 rpm) placed in a humidified incubator (37°C, 7.5% CO2) for 240 min. The reaction was initiated with the addition of compound with samples taken periodically and quenched with the addition of acetonitrile containing internal standards (metolazone and diazepam). Quenched samples were maintained on ice for approximately 20-30 min, centrifuged (for 5 min) and the supernatant analyzed by LC-MS.
In vitro intrinsic clearance (CLint, μL/min/mg or μL/min/10^6 cells) values were calculated from the apparent first order degradation rate constant divided by the microsome concentration or the hepatocyte cell number (10^6 viable cells/mL). In vitro CLint values were then divided by the fraction unbound in the in vitro test system (to give CLint,u) and scaled to in vivo values (mL/min/kg) using published physiological scaling factors ([28]). Blood clearance in each species was then calculated using the well-stirred model of hepatic extraction (equation 2) where Q is the hepatic blood flow and fu,blood is calculated from fu,plasma/B:P: [2] PredictedCLblood=Q x fu,blood x CLint,u/Q+fu,blood x CLint,u
Blood clearance values were converted to plasma clearance by multiplying by the B:P.

[6] = In vitro cytotoxicity assay; type: cell-based; settings: rat, L-6 rat skeletal myoblasts
[7] = In vitro cytotoxicity assay; type: cell-based; settings: human, MRC-5 human fetal lung fibroblasts
[8] = In vitro cytotoxicity assay; type: cell-based; settings: human, THP1 human monocytic leukaemia cells
[9] = system: L5178Y mouse lymphoma cells; assay: In vitro mutation assay at the TK locus; type: cell-based; settings: absence or presence of rat liver S9
Procedure: Two independent mutation tests were carried out: one in which cells were treated for 3 h in the presence of rat liver S9 mix and with […] as a positive control, and a second treated for 24 h in the absence of S9 mix and with […] as a positive control. In both cases, DMSO was used as the negative control. In accordance with current guidelines ICH S2(R1), 2011 ([41]) mutant frequency was counted at concentrations where solubility was not a limiting factor and cytotoxicity was not observed.

[10] = molecular target: T1, human cytochrome bc1 complex (Homo sapiens, UniProt P00156); assay: Human complex III inhibition assay; type: biochemical
T1 construct: Preparation of mitochondria from a human cell line (THP-1); endogenous in cells; host or cells: THP-1 (human) mitochondria
Procedure: Preparation of mitochondria from a human cell line (THP-1) was performed following published procedure ([21]). The protocol for the assay has been described in ([22]).

Cc1[nH]c2nc(N)nc(C)c2c1-c1ccc(C#N)c2c1OCO2 [DNDI-6174] gave an EC50 [1] of 5 to 20 µM, an EC50 ([2]; DDD01716002 Res 1, read-out: EC50 (representative curve, Fig. 2A)) of 1.276 ± 0.002 µM and an EC50 ([2]; WT, read-out: EC50 (representative curve, Fig. 2A)) of 0.022 ± 0.002 µM. The EC50 ([2]; Wild-type promastigotes, read-out: EC50 values) was 0.024 ± 0.001 µM, the EC50 ([2]; read-out: EC50 values, DDD01716002 Res 1 (S207P)) was 0.779 ± 0.098 µM and the EC50 ([2]; read-out: EC50 values, DDD01716002 Res 2 (G31A)) was 0.829 ± 0.063 µM. It also gave an EC50 ([2]; read-out: EC50 values, DDD01716002 Res 3 (F227I)) of 0.084 ± 0.003 µM, an EC50 ([2]; read-out: EC50 values, DNDI-6174 Res 1 (S35N/S206N)) of 0.431 ± 0.016 µM and an EC50 ([2]; read-out: EC50 values, DNDI-6174 Res 2 (D231E)) of 3.95 ± 0.228 µM. It also gave an EC50 ([2]; read-out: EC50 values, DNDI-6174 Res 3 (S207P)) of 1.5 ± 0.091 µM, an EC50 ([2]; read-out: EC50 values, DNDI-6174 Res 4 (G31A)) of 2.7 ± 0.145 µM and an EC50 ([2]; read-out: EC50 values, DNDI-6174 Res 5 (S206N)) of 0.157 ± 0.005 µM. The solubility ([3]; FaSSGF, pH 1.6, fassgf or other biorelevant, pH 1.6, read-out: Solubility FaSSGF) was 1200 µg/mL (≈ 3900 µM), the solubility ([3]; FaSSIF-V2, pH 6.5, fassif, pH 6.5, read-out: Solubility FaSSIF) was 11 µg/mL (≈ 35.8 µM) and the solubility ([3]; FeSSIF-V2, pH 5.8, fessif, pH 5.8, read-out: Solubility FeSSIF) was 54 µg/mL (≈ 176 µM). The “Solubility FaSSGF” value ([3]; pH 1.6) was 1190 µg/mL (≈ 3870 µM), the solubility ([3]; phosphate buffered saline (PBS), pH 7.4, aqueous buffer, pH 7.4, read-out: Solubility PBS) was 6.5 µg/mL (≈ 21.2 µM) and the fraction unbound at 6 h, 0.5 µM [4] was 0.51. For the same compound, the “Hepatocyte predicted in vivo CLplasma” value ([5]; Human) was 0.31 mL/min/kg, the hepatocyte CLint at 0.5 µM ([5]; human, cryopreserved hepatocytes) was 1.1 ± 0.27 µL/min/1e6 cells and the CC50 [6] was greater than 63 µM. For the same compound, the CC50 [7] was greater than 64 µM, the CC50 [8] was greater than 50 µM and the “genotoxicity, in words” value [9] was “not genotoxic”. The inhibition at 200 µM [10] was less than 20%.
